Counter-ions that a name gives are not always drawn.
biological target: menin/MLL (terbium chelate-labeled menin, FITC-MBM1 peptide) (Homo sapiens (Human), UniProt O00255); experiment: Menin/MLL homogenous time-resolved fluorescence (HTRF) assay; format: binding; details: HTRF-30 min incubation IC50, 30 min incubation;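 note: IC50 from percent inhibition of HTRF signal, normalized between wells without competitor and wells with a saturating competitor that displaces FITC-MBM1 from His-tagged menin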
Sequence (O00255 other isoform, or with tags, fused parts or gaps): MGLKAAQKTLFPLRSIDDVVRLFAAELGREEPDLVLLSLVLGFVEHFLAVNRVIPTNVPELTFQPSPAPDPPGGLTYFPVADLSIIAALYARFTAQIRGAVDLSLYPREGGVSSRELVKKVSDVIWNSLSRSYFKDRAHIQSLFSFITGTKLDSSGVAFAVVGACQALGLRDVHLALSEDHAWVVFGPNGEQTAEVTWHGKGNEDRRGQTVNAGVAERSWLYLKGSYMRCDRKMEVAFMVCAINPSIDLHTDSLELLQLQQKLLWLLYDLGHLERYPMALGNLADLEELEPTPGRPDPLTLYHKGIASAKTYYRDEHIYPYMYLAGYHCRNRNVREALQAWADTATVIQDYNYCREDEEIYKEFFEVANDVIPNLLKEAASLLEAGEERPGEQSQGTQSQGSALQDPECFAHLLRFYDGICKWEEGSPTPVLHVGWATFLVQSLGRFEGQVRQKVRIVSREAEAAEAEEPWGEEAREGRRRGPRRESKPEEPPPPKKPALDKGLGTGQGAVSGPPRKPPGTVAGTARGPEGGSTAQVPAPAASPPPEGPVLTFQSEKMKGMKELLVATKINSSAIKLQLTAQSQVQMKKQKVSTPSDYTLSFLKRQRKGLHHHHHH

IC50 | SMILES
3.79 nM | COCCN(C)CCC[C@@H](C(C)C)N1CC2(CCN(c3ccnnc3Oc3ccc(F)cc3C(=O)N(C(C)C)C(C)C)C2)C1 (single isomer, unassigned) [Compound 89, (*S)-5-fluoro-N,N-isopropyl-2-((4-(2-(6-((2-methoxyethyl)(methyl)amino)-methylhexan-3-yl)-2,6-diazaspiro[3.4]octan-6-yl)pyridazin-3-yl)oxy)benzamide oxalate]
2.05 nM | COCCNCCC[C@@H](C(C)C)N1CC2(CCN(c3ncnnc3Oc3ccc(F)cc3C(=O)N(C(C)C)C(C)C)C2)C1 (single isomer, unassigned) [Compound 100, (*S)-5-fluoro-N,N-isopropyl-2-((5-(2-(6-((2-methoxyethyl)amino)-2-methylhexan-3-yl)-2,6-diazaspiro[3.4]octan-6-yl)-1,2,4-triazin-6-yl)oxy)benzamide oxalate]
9.45 nM | CCN(C(=O)c1cc(F)ccc1Oc1nncnc1N1CCC2(C1)CN([C@@H](CCCCN(C)C)C(C)C)C2)C(C)C (single isomer, unassigned) [Compound 212]
12.3 nM | CCN(C(=O)c1cc(F)ccc1Oc1nncnc1N1CCC2(C1)CN([C@H](C[C@@H](C)CN(C)CCOC)C(C)C)C2)C(C)C (single isomer, unassigned) [Compound 240, N-ethyl-5-fluoro-N-isopropyl-2-((5-(2-((3*R,5*R)-6-((2-methoxyethyl)(methyl)amino)-2,5-dimethylhexan-3-yl)-2,6-diazaspiro[3.4]octan-6-yl)-1,2,4-triazin-6-yl)oxy)benzamide fumarate]
7.39 nM | CCN(C(=O)c1cc(F)ccc1Oc1nncnc1N1CCC2(C1)CN([C@@H](C[C@H](C)CN(C)CCOC)C(C)C)C2)C(C)C (single isomer, unassigned) [Compound 243, N-ethyl-5-fluoro-N-isopropyl-2-((5-(2-((3*S,5*S)-6-((2-methoxyethyl)(methyl)amino)-2,5-dimethylhexan-3-yl)-2,6-diazaspiro[3.4]octan-6-yl)-1,2,4-triazin-6-yl)oxy)benzamide fumarate]
18.4 nM | CCN(C(=O)c1cc(F)ccc1Oc1nncnc1N1CCC2(C1)CN([C@@H](C[C@H](O)CN(C)C(C)C)C(C)C)C2)C(C)C (single isomer, unassigned) [Compound 324, N-ethyl-5-fluoro-2-((5-(2-((3*S,5*S)-5-hydroxy-6-(isopropyl(methyl)amino)-2-methylhexan-3-yl)-2,6-diazaspiro[3.4]octan-6-yl)-1,2,4-triazin-6-yl)oxy)-N-isopropylbenzamide fumarate]
18.5 nM | CCN(C(=O)c1cc(F)ccc1Oc1nncnc1N1CCC2(C1)CN([C@@H](C[C@@H](O)CN(C)C(C)C)C(C)C)C2)C(C)C (single isomer, unassigned) [Compound 326, N-ethyl-5-fluoro-2-((5-(2-((3*S,5*R)-5-hydroxy-6-(isopropyl(methyl)amino)-2-methylhexan-3-yl)-2,6-diazaspiro[3.4]octan-6-yl)-1,2,4-triazin-6-yl)oxy)-N-isopropylbenzamide fumarate]
5.49 nM | CCN(CC)C[C@@H](O)C[C@@H](C(C)C)N1CC2(CCN(c3ncnnc3Oc3ccc(F)cc3C(=O)N(CC)C(C)C)C2)C1 (single isomer, unassigned) [Compound 335, 2-((5-(2-((3*S,5*S)-6-diethylamino)-5-hydroxy-2-methylhexan-3-yl)-2,6-diazaspiro[3.4]octan-6-yl)-1,2,4-triazin-6-yl)oxy)-N-ethyl-5-fluoro-N-isopropylbenzamide fumarate]
4.57 nM | CCN(CC)C[C@@H](O)C[C@H](C(C)C)N1CC2(CCN(c3ncnnc3Oc3ccc(F)cc3C(=O)N(CC)C(C)C)C2)C1 (single isomer, unassigned) [Compound 337, 2-(5-(2-((3*R,5*S)-6-(diethylamino)-5-hydroxy-2-methylhexan-3-yl)-2,6-diazaspiro[3.4]octan-6-yl)-1,2,4-triazin-6-yl)oxy)-N-ethyl-5-fluoro-N-isopropylbenzamide fumarate]
~3.93 nM | CCN(C)C[C@@H](O)C[C@@H](C(C)C)N1CC2(CCN(c3ncnnc3Oc3ccc(F)cc3C(=O)N(CC)C(C)C)C2)C1 (single isomer, unassigned) [Compound 343, N-ethyl-2-((5-(2-((3*S,5S)-6-(ethyl(methyl)amino)-5-hydroxy-2-methylhexan-3-yl)-2,6-diazaspiro[3.4]octan-6-yl)-1,2,4-triazin-6-yl)oxy)-5-fluoro-N-isopropylbenzamide fumarate]
4.19 nM | CCN(C(=O)c1cc(F)ccc1Oc1nncnc1N1CCC2(C1)CN([C@@H](C[C@H](O)CN(C)CCOC)C(C)C)C2)C(C)C (single isomer, unassigned) [Compound 353, N-ethyl-5-fluoro-2-((5-(2-((3*S,5S)-5-hydroxy-6-((2-methoxyethyl)(methyl)amino)-2-methylhexan-3-yl)-2,6-diazaspiro[3.4]octan-6-yl)-1,2,4-triazin-6-yl)oxy)-N-isopropylbenzamide fumarate]
7.77 nM | CCN(C(=O)c1cc(F)ccc1Oc1nncnc1N1CCC2(C1)CN([C@@H](C[C@@H](O)CN(C)CCOC)C(C)C)C2)C(C)C (single isomer, unassigned) [Compound 357, N-ethyl-5-fluoro-2-((5-(2-((3*S,5R)-5-hydroxy-6-((2-methoxyethyl)(methyl)amino)-2-methylhexan-3-yl)-2,6-diazaspiro[3.4]octan-6-yl)-1,2,4-triazin-6-yl)oxy)-N-isopropylbenzamide fumarate]
5.42 nM | CC(C)[C@H](C[C@@H](O)CN(C)C)N1CC2(CCN(c3ncnnc3Oc3ccc(F)cc3C(=O)N(C(C)C)C(C)C)C2)C1 (single isomer, unassigned) [Compound 370, 2-((5-(2-((3*S,5*R)-6-(dimethylamino)-5-hydroxy-2-methylhexan-3-yl)-2,6-diazaspiro[3.4]octan-6-yl)-1,2,4-triazin-6-yl)oxy)-5-fluoro-N,N-diisopropylbenzamide fumarate]
15.4 nM | CCN(C(=O)c1cc(F)ccc1Oc1nncnc1N1CCC2(C1)CN([C@@H](C[C@@H](CN(C)C)OC)C(C)C)C2)C(C)C (single isomer, unassigned) [Compound 377, 2-((5-(2-((3*S,5*R)-6-(dimethylamino)-5-methoxy-2-methylhexan-3-yl)-2,6-diazaspiro[3.4]octan-6-yl)-1,2,4-triazin-6-yl)oxy)-N-ethyl-5-fluoro-N-isopropylbenzamide fumarate]
27.3 nM | CCN(C(=O)c1cc(F)ccc1Oc1nncnc1N1CCC2(C1)CN([C@@H](C[C@H](CN(C)C)OC)C(C)C)C2)C(C)C (single isomer, unassigned) [Compound 378, 2-((5-(2-((3*S,5*R)-6-(dimethylamino)-5-methoxy-2-methylhexan-3-yl)-2,6-diazaspiro[3.4]octan-6-yl)-1,2,4-triazin-6-yl)oxy)-N-ethyl-5-fluoro-N-isopropylbenzamide fumarate]
14.2 nM | CCN(C)C[C@H](C[C@@H](C(C)C)N1CC2(CCN(c3ncnnc3Oc3ccc(F)cc3C(=O)N(CC)C(C)C)C2)C1)OC (single isomer, unassigned) [Compound 379, N-ethyl-2-((5-(2-((3*S,5*S)-6-(ethyl(methyl)amino)-5-methoxy-2-methylhexan-3-yl)-2,6-diazaspiro[3.4]octan-6-yl)-1,2,4-triazin-6-yl)oxy)-5-fluoro-N-isopropylbenzamide]
40.5 nM | CCN(C)C[C@@H](C[C@@H](C(C)C)N1CC2(CCN(c3ncnnc3Oc3ccc(F)cc3C(=O)N(CC)C(C)C)C2)C1)OC (single isomer, unassigned) [Compound 380, N-ethyl-2-((5-(2-((3*S,5*R)-6-(ethyl(methyl)amino)-5-methoxy-2-methylhexan-3-yl)-2,6-diazaspiro[3.4]octan-6-yl)-1,2,4-triazin-6-yl)oxy)-5-fluoro-N-isopropylbenzamide]
9.52 nM | CCCN(C)C[C@@H](O)C[C@@H](C(C)C)N1CC2(CCN(c3ncnnc3Oc3ccc(F)cc3C(=O)N(CC)C(C)C)C2)C1 (single isomer, unassigned) [Compound 387, N-ethyl-5-fluoro-2-((5-(2-((3*S,5*S)-5-hydroxy-2-methyl-6-(methyl(propyl)amino)hexan-3-yl)-2,6-diazaspiro[3.4]octan-6-yl)-1,2,4-triazin-6-yl)oxy)-N-isopropylbenzamide fumarate]
10.3 nM | CCN(C)C[C@@H](O)C[C@@H](C(C)C)N1CC2(CCN(c3ncnnc3Oc3ccc(F)cc3C(=O)N(C(C)C)C(C)C)C2)C1 (single isomer, unassigned) [Compound 392, 2-((5-(2-((3*S,5*S)-6-(ethyl(methyl)amino)-5-hydroxy-2-methylhexan-3-yl)-2,6-diazaspiro[3.4]octan-6-yl)-1,2,4-triazin-6-yl)oxy)-5-fluoro-N,N-diisopropylbenzamide fumarate]
0.086 nM | CCN(C(=O)c1cc(F)ccc1Oc1nnc(OC)nc1N1CCC2(C1)CN([C@H](CCCN)C(C)C)C2)C(C)C [Compound 407, (R)-2-((5-(2-(6-amino-2-methylhexan-3-yl)-2,6-diazaspiro[3.4]octan-6-yl)-3-methoxy-1,2,4-triazin-6-yl)oxy)-N-ethyl-5-fluoro-N-isopropylbenzamide formate]
0.084 nM | COCCN(C)CCC[C@H](C(C)C)N1CC2(CCN(c3ncnnc3Oc3ccc(F)cc3C(=O)N(C)C(C)C)C2)C1 [Compound 415, (R)-5-fluoro-N-isopropyl-2-((5-(2-(6-((2-methoxyethyl)(methyl)amino)-2-methylhexan-3-yl)-2,6-diazaspiro[3.4]octan-6-yl)-1,2,4-triazin-6-yl)oxy)-N-methylbenzamide]
~0.035 nM | CCN(C(=O)c1cc(F)ccc1Oc1nnc(OC)nc1N1CCC2(C1)CN([C@H](CCCN(C)CCOC)C(C)C)C2)C(C)C [Compound 416, (R)-N-ethyl-5-fluoro-N-isopropyl-2-((3-methoxy-5-(2-(6-((2-methoxyethyl)(methyl)amino)-2-methylhexan-3-yl)-2,6-diazaspiro[3.4]octan-6-yl)-1,2,4-triazin-6-yl)oxy)benzamide formate]

test system: MEIS1 mRNA; experiment: MEIS1 mRNA expression assay (Quantigene Singleplex) in MOLM14 cells; format: cell-based, human; details: Homo sapiens, MOLM-14, 48 h, 48 hours incubation;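 note: MEIS1 transcript levels read by probe hybridization and normalized to RPL28 mRNA, with IC50 fitted to fold changes across a rising compound concentration series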

IC50 | SMILES
> 1000 nM | CCN(CC)C[C@@H](O)C[C@H](C(C)C)N1CC2(CCN(c3ncnnc3Oc3ccc(F)cc3C(=O)N(CC)C(C)C)C2)C1 (single isomer, unassigned) [Compound 337, 2-(5-(2-((3*R,5*S)-6-(diethylamino)-5-hydroxy-2-methylhexan-3-yl)-2,6-diazaspiro[3.4]octan-6-yl)-1,2,4-triazin-6-yl)oxy)-N-ethyl-5-fluoro-N-isopropylbenzamide fumarate]
530 nM | CCN(C)C[C@@H](O)C[C@@H](C(C)C)N1CC2(CCN(c3ncnnc3Oc3ccc(F)cc3C(=O)N(CC)C(C)C)C2)C1 (single isomer, unassigned) [Compound 343, N-ethyl-2-((5-(2-((3*S,5S)-6-(ethyl(methyl)amino)-5-hydroxy-2-methylhexan-3-yl)-2,6-diazaspiro[3.4]octan-6-yl)-1,2,4-triazin-6-yl)oxy)-5-fluoro-N-isopropylbenzamide fumarate]
380 nM | CCN(C(=O)c1cc(F)ccc1Oc1nnc(OC)nc1N1CCC2(C1)CN([C@H](CCCN)C(C)C)C2)C(C)C [Compound 407, (R)-2-((5-(2-(6-amino-2-methylhexan-3-yl)-2,6-diazaspiro[3.4]octan-6-yl)-3-methoxy-1,2,4-triazin-6-yl)oxy)-N-ethyl-5-fluoro-N-isopropylbenzamide formate]
49 nM | CCN(C(=O)c1cc(F)ccc1Oc1nnc(OC)nc1N1CCC2(C1)CN([C@H](CCCN(C)CCOC)C(C)C)C2)C(C)C [Compound 416, (R)-N-ethyl-5-fluoro-N-isopropyl-2-((3-methoxy-5-(2-(6-((2-methoxyethyl)(methyl)amino)-2-methylhexan-3-yl)-2,6-diazaspiro[3.4]octan-6-yl)-1,2,4-triazin-6-yl)oxy)benzamide formate]
